These results are taken from patent US10947185B2, “Crystal form of dezocine and preparation method therefor” (priority 2017, dated 2021).

The term solubility denotes the dissolved amount per volume that the medium holds.

SMILES strings stand for the structures. Values after ≈ are worked out from the molar mass of the structure shown. Where two headings read alike, the source gives them in different places.

Data set [1] is described as follows: Solubility test in 0.1 mol/L hydrochloric acid solution. The format is physicochemical. The settings on record: for solubility: 50 mg sample.
Data set [2] is described as follows: Stability test: changes of related substances over 6 months. The format is physicochemical. From the text:
iii. Compared with the sample of crystal Form I of dezocine, the new crystal form of dezocine prepared according to the present application has better stability, and changes of the related substances within the new crystal form of dezocine over 6 months are as follows: […]

For data set [3] the following is noted: relative to Dolantin; cited from earlier work.

On to `C[C@@]12CCCCC[C@@H](Cc3ccc(O)cc31)[C@@H]2N` (single isomer, unassigned) [Crystal Form II of dezocine, (−)-[5R-(5α,11α,13S*)]-13-amino-5,6,7,8,9,10,11,12-octahydro-5-methyl-5,11-methanobenzocy clodecen-3-ol], for which, in data set [1], the “Solubility increase compared with crystal Form I of dezocine” value is reported as “about 32%”. The solubility in data set [1] (simulated gastric fluid, thermodynamic from solid, read-out: Solubility) was 33 mg/mL (≈ 134 mM).
As to `C[C@@]12CCCCC[C@@H](Cc3ccc(O)cc31)[C@@H]2N` (relative stereo) [Example 3, (−)-[5R-(5α,11α,13S*)]-13-amino-5,6,7,8,9,10,11,12-octahydro-5-methyl-5,11-methanobenzocy clodecen-3-ol], the Related substances in data set [2] (0 days) is reported as 0.04%; in data set [2] (1 month), 0.05%; in data set [2] (3 months), 0.8%; in data set [2] (6 months) it was 0.10%.
The like results for `C[C@@]12CCCCC[C@@H](Cc3ccc(O)cc31)[C@@H]2N` (relative stereo) [Example 2, (−)-[5R-(5α,11α,13S*)]-13-amino-5,6,7,8,9,10,11,12-octahydro-5-methyl-5,11-methanobenzocy clodecen-3-ol] were, in that order, 0.07%, 0.09%, 0.10% and 0.12%.
`C[C@@]12CCCCC[C@@H](Cc3ccc(O)cc31)[C@@H]2N` (relative stereo) [Example 1, (−)-[5R-(5α,11α,13S*)]-13-amino-5,6,7,8,9,10,11,12-octahydro-5-methyl-5,11-methanobenzocy clodecen-3-ol]: the Related substances was 0.06% in data set [2] (0 days), 0.07% in data set [2] (1 month), 0.10% in data set [2] (3 months) and 0.13% in data set [2] (6 months).
In data set [1], `C[C@@]12CCCCC[C@@H](Cc3ccc(O)cc31)[C@@H]2N` (single isomer, unassigned) [Crystal Form I of dezocine, (−)-[5R-(5α,11α,13S*)]-13-amino-5,6,7,8,9,10,11,12-octahydro-5-methyl-5,11-methanobenzocy clodecen-3-ol, reference compound] displayed a solubility of 25 mg/mL (≈ 102 mM). In addition, the Related substances was found to be 0.08% in data set [2] (0 days), 0.15% in data set [2] (1 month), 0.21% in data set [2] (3 months) and 0.28% in data set [2] (6 months).
Turning to `C[C@@]12CCCCC[C@@H](Cc3ccc(O)cc31)[C@@H]2N` (relative stereo) [Example 5, (−)-[5R-(5α,11α,13S*)]-13-amino-5,6,7,8,9,10,11,12-octahydro-5-methyl-5,11-methanobenzocy clodecen-3-ol], the Related substances in data set [2] (0 days) stood at 0.04%; in data set [2] (1 month), 0.06%; in data set [2] (3 months), 0.07%; in data set [2] (6 months) it was 0.09%.
The like results for `C[C@@]12CCCCC[C@@H](Cc3ccc(O)cc31)[C@@H]2N` (relative stereo) [Example 4, (−)-[5R-(5α,11α,13S*)]-13-amino-5,6,7,8,9,10,11,12-octahydro-5-methyl-5,11-methanobenzocy clodecen-3-ol] were, in that order, 0.06%, 0.08%, 0.10% and 0.12%.
With `C[C@@]12CCCCC[C@@H](Cc3ccc(O)cc31)[C@@H]2N` (relative stereo) [Dezocine, (−)-[5R-(5α,11α,13S*)]-13-amino-5,6,7,8,9,10,11,12-octahydro-5-methyl-5,11-methanobenzocy clodecen-3-ol], in data set [3], the “Analgesic intensity, onset time, duration of action and maximum analgesic effect, stronger than those of Dolantin” value was 5-9 times.
